Assay results taken from patent US8710224B2, “Heterocyclic compounds as CCR2B antagonists” (AstraZeneca AB, priority 2004, dated 2014).

Biological target: T1, recombinant human CCR5 receptor (Homo sapiens, UniProt P51681)
T1 construct: expressed in transfected cells; host or cells: Chinese hamster ovary (CHO) cells; membranes
Assay: Radioligand binding assay for inhibition of the binding of MIP-1α
Settings: displacement of 0.1 nM iodinated MIP-1α; membranes of Chinese hamster ovary cells expressing CCR5
Outline: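 Membranes from CHO cells expressing recombinant human CCR5 were incubated with 0.1 nM iodinated MIP-1α, scintillation proximity beads and compound at various concentrations. Bound radioligand was measured by scintillation counting.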

T1 sequence (P51681 whole entry): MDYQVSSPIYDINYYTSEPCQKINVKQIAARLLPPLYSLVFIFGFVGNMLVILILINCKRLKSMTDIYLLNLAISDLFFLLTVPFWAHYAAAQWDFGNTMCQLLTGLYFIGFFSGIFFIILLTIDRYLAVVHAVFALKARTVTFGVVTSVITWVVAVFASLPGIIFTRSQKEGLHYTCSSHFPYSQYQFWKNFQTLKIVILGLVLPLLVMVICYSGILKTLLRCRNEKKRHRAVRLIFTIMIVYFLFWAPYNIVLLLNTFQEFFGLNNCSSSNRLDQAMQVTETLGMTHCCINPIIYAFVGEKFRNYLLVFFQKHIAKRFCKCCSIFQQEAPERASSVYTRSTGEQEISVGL

## O=C(Nc1ccc(Cl)c(Cl)c1)N1CCN(C(=O)[C@H]2CN(C3CCC(O)(c4ccccn4)CC3)CCN2)CC1 (stereo partly drawn) [Example 279, N-(3,4-Dichlorophenyl)-4-{[(2R)-4-(4-hydroxy-4-pyridin-2-ylcyclohexyl)piperazin-2-yl]carbonyl}piperazine-1-carboxamide]
  IC50: < 10 µM

## CC(C)N1CCN[C@@H](C(=O)N2CCN(C(=O)Nc3cccc(Oc4ccccc4)c3)CC2)C1 [Example 260, 4-{[(2R)-4-Isopropylpiperazin-2-yl]carbonyl}-N-(3-phenoxyphenyl) piperazine-1-carboxamide]
  IC50: < 10 µM

## O=C(Nc1ccc(Cl)c(Cl)c1)N1CCN(C[C@H]2CN(C3CCOCC3)CCO2)CC1 [Example 121, N-(3,4-dichlorophenyl)-4-{[(2S)-4-(tetrahydro-2H-pyran-4-yl)morpholin-2-yl]methyl}piperazine-1-carboxamide]
  IC50: < 10 µM

## O=C(Nc1ccccc1)N1CCN(C[C@@H]2CCCN(CCCc3ccccc3)C2)CC1 [Example 245, N-phenyl-4-[[(3R)-1-(3-phenylpropyl)-3-piperidyl]methyl]piperazine-1-carboxamide]
  IC50: < 10 µM

## O=C(Nc1ccccc1)N1CCN(C[C@@H]2CCCN(CCc3ccc(Cl)c(Cl)c3)C2)CC1 [Example 253, 4-[[(3R)-1-[2-(3,4-dichlorophenyl)ethyl]-3-piperidyl]methyl]-N-phenyl piperazine-1-carboxamide]
  IC50: < 10 µM

## CCCC(C)N1CCOC(CN2CCN(C(=O)Nc3ccc(F)c(Cl)c3)CC2)C1 (stereo in doubt) [Example 237, N-(3-chloro-4-fluorophenyl)-4-({(2R)-4-[(1S)-1-methylbutyl]morpholin-2-yl}methyl)piperazine-1-carboxamide]
  IC50: < 10 µM

## O=C(Nc1ccc(F)c(Cl)c1)N1CCN(C[C@@H]2CCCN(C3CC3)C2)CC1 [Example 107, N-(3-chloro-4-fluorophenyl)-4-{[(3S)-1-cyclopropylpiperidin-3-yl]methyl}piperazine-1-carboxamide]
  IC50: < 10 µM

## O=C(Nc1ccc(Cl)c(Cl)c1)N1CCN(C(=O)[C@H]2CN(CCCc3ncc(F)cn3)CCN2)CC1 [Example 273, N-(3,4-dichlorophenyl)-4-({(2R)-4-[3-(5-fluoropyrimidin-2-yl)propyl]piperazin-2-yl}carbonyl)piperazine-1-carboxamide]
  IC50: < 10 µM

## CC(C)CC(C)N1CCOC(CN2CCN(C(=O)Nc3ccc(F)c(Cl)c3)CC2)C1 (stereo in doubt) [Example 259, N-(3-chloro-4-fluorophenyl)-4-({(2R)-4-[(1R)-1,3-dimethylbutyl]morpholin-2-yl}methyl)piperazine-1-carboxamide]
  IC50: < 10 µM

## O=C(Nc1ccc(Cl)c(Cl)c1)N1CCN(C(=O)[C@H]2CN(C3CC3)CCN2)CC1 [Example 135, 4-[(2R)(4-Cyclopropylpiperazin-2-yl)carbonyl]-N-(3,4-dichlorophenyl)piperazine-1-carboxamide]
  IC50: < 10 µM

## O=C(Nc1ccc(C(F)(F)F)cc1)N1CCN(C[C@@H]2CCCN(C3CC3)C2)CC1 [Example 111, 4-{[(3S)-1-cyclopropylpiperidin-3-yl]methyl}-N-[4-(trifluoromethyl)phenyl]piperazine-1-carboxamide]
  IC50: < 10 µM

## Cc1ccc(NC(=O)N2CCN(C[C@@H]3CCCN(CCCc4ccc(S(C)(=O)=O)cc4)C3)CC2)cc1Cl [Example 324, N-(3-Chloro-4-methylphenyl)-4-[((3R)-1-{3-[4-(methylsulfonyl)phenyl]propyl}piperidin-3-yl)methyl]piperazine-1-carboxamide]
  IC50: < 10 µM

## CN1CCCC(CN2CCN(C(=O)Nc3cc(Cl)cc(Cl)c3)CC2)C1 (centres unmarked) [Example 41, N-(3,5-dichlorophenyl)-4-[(1-methylpiperidin-3-yl)methyl]piperazine-1-carboxamide]
  IC50: < 10 µM

## O=C(Nc1ccc(Cl)c(Cl)c1)N1CCN(C[C@@H]2CCCN(CCC3CCNCC3)C2)CC1 [Example 205, N-(3,4-Dichlorophenyl)-4-{[(3R)-1-(2-piperidin-4-ylethyl)piperidin-3-yl]methyl}piperazine-1-carboxamide]
  IC50: < 10 µM
